According to BigSolDB 2.1:

Clc1ccc2c(Cl)ccnc2c1
Details | solubility (mole fraction)
in THF, 299.4 K | 0.0683
in THF, 303.2 K | 0.0701
in THF, 309.1 K | 0.0745
in THF, 313.3 K | 0.081
in THF, 318.1 K | 0.0887
in THF, 323.2 K | 0.1
in THF, 328.3 K | 0.119
in THF, 333.4 K | 0.14
in acetone, 299.2 K | 0.0591
in acetone, 303.2 K | 0.0614
in acetone, 309.1 K | 0.0658
in acetone, 313.3 K | 0.0725
in acetone, 318.1 K | 0.0818
in acetone, 323.2 K | 0.0954
in acetone, 328.3 K | 0.113
in acetonitrile, 299.8 K | 0.00603
in acetonitrile, 303.2 K | 0.00814
in acetonitrile, 308.1 K | 0.0127
in acetonitrile, 313.3 K | 0.0208
in acetonitrile, 318.1 K | 0.0307
in acetonitrile, 323.2 K | 0.0489
in acetonitrile, 328.3 K | 0.0788
in acetonitrile, 333.4 K | 0.13
in ethanol, 299.8 K | 0.0113
in ethanol, 303.2 K | 0.0145
in ethanol, 308.1 K | 0.0224
in ethanol, 313.3 K | 0.0364
in ethanol, 318.1 K | 0.0564
in ethanol, 323.2 K | 0.0886
in ethanol, 328.3 K | 0.135
in ethanol, 333.4 K | 0.208
in water, 298 K | 2.84e-05
in water, 303.3 K | 2.9e-05
in water, 308.2 K | 3.01e-05
in water, 313.1 K | 3.21e-05
in water, 318.3 K | 3.45e-05
in water, 323.3 K | 3.88e-05
in water, 327.7 K | 4.2e-05
in water, 333.3 K | 4.85e-05
